# Reference: US20260035356A1, “MODULATORS OF TYK2 PROTEOLYSIS AND ASSOCIATED METHODS OF USE” (Arvinas Operations, Inc., priority 2022, published 2026)
# “Also recorded” adds a separate entry of the source.
# Target: T1, TYK2 (Homo sapiens, UniProt P29597)
# T1 construct: MOLT-4 cells (ATCC CRL-1582) were acquired from ATCC and maintained in RPMI-1640 medium; host or cells: MOLT-4 cells
# Test: TYK2 degradation in MOLT-4 cells (Western blot, TYK2 level relative to DMSO-treated cells)
# Format: cell-based
# Details: 24 hour treatment, PROTAC 1 plus pomalidomide (competing for CRBN binding)
# Description: With reference to FIGS. 2A-2B. MOLT-4 cells (ATCC CRL-1582) were acquired from ATCC and maintained in RPMI-1640 medium supplemented with 10% fetal bovine serum (ATCC 30-2020), the combination henceforth referred to as “media”. Cells were maintained according to ATCC, (see product sheet), including incubation at 37° C. with 5% C02 in air other than during brief manipulations in a cell culture hood or during centrifugation.
# 18-24 hours before compound treatment, cells growing for 2-3 days in a flask were centrifuged at 200×g for 8 min, the media was aspirated, and fresh media was used to resuspend the cells. Cells were then counted, diluted with fresh media, and seeded at 650,000-750,000 cells/ml in 6-well plates, with 2 ml of volume per well.
# Compounds to be tested were solubilized and stored in dimethyl sulfoxide (DMSO) at 10 mM. Compounds were first diluted in DMSO and then media so that the DMSO concentration was identical across treatments and the final concentration of DMSO was below 0.1% (typically 0.04%). Cells in each well of a 6-well plate were treated by adding 0.5 ml of fresh media containing varying concentrations of compounds to be tested—or only DMSO as a “no treatment” control.
# Cells were harvested 24 hours after treatment by collecting all volume from each well into labeled microfuge tubes followed by centrifugation at 200×g for 8 min. Cells were washed in 1 ml of phosphate buffered saline (DPBS; Gibco 141190144) and then 0.5 ml of DPBS by centrifugation (as above) and aspiration. Cell pellets were resuspended by pipetting up-and-down in 100 microliters of ice cold RIPA buffer (Thermo, 89900) supplemented with 1× protease inhibitor cocktail and 1×EDTA (Pierce, 87786) and 1× phosphatase inhibitor cocktail (Pierce, 78420). Cell extracts were incubated on ice for 10 min and then centrifuged at 21,130×g for 20 min in a microfuge. Supernatants were collected and protein concentration for each sample was determined using a BCA kit (Thermo, 23225). Each sample was then denatured by adding 4×LDS buffer (Invitrogen, NP0008) to 1× followed by heating at 95° C. for 5 minutes.
# Proteins were separated by electrophoresis using a XCell4 Surelock Midi-Cell apparatus (Invitrogen) and then transferred to PVDF membranes within iBlot 2 Transfer Stacks (Invitrogen, IB24001) using an iBlot 2 system (Invitrogen). Membranes were cut horizontally at a 50 kDa molecular weight marker and each piece of membrane was blocked in TBS-T+5% non-fat dry milk (NFDM) for 1-24 hours. Membranes were then incubated with antibody to TYK2 (Cell Signaling Technologies, 14193) or GAPDH (Cell Signaling Technologies, 5174; as loading control) in TBS-T+1% NFDM for 1 hour. Membranes were washed four times in TBS-T for 10 min each time, and then incubated with a HRP-conjugated secondary antibody (Cell Signaling Technologies, 7074) in TBS-T+1% NFDM for one hour. Membranes were washed four times for 10 min in TBS-T. Membranes were then incubated with reagents according to the SuperSignal West Femto Kit (Thermo, 34095) for 1 min at room temperature. Membranes were then imaged using a Gel Doc XR+ system (BioRad).
# Captured images were processed using Image Lab software (BioRad). Using the volume tool, band intensities within rectangles of equal area were determined with the local subtraction method. The effects of compounds on TYK2 levels were related to the level of TYK2 from cells treated with only DMSO (no compound).
# T1 sequence (P29597 whole entry): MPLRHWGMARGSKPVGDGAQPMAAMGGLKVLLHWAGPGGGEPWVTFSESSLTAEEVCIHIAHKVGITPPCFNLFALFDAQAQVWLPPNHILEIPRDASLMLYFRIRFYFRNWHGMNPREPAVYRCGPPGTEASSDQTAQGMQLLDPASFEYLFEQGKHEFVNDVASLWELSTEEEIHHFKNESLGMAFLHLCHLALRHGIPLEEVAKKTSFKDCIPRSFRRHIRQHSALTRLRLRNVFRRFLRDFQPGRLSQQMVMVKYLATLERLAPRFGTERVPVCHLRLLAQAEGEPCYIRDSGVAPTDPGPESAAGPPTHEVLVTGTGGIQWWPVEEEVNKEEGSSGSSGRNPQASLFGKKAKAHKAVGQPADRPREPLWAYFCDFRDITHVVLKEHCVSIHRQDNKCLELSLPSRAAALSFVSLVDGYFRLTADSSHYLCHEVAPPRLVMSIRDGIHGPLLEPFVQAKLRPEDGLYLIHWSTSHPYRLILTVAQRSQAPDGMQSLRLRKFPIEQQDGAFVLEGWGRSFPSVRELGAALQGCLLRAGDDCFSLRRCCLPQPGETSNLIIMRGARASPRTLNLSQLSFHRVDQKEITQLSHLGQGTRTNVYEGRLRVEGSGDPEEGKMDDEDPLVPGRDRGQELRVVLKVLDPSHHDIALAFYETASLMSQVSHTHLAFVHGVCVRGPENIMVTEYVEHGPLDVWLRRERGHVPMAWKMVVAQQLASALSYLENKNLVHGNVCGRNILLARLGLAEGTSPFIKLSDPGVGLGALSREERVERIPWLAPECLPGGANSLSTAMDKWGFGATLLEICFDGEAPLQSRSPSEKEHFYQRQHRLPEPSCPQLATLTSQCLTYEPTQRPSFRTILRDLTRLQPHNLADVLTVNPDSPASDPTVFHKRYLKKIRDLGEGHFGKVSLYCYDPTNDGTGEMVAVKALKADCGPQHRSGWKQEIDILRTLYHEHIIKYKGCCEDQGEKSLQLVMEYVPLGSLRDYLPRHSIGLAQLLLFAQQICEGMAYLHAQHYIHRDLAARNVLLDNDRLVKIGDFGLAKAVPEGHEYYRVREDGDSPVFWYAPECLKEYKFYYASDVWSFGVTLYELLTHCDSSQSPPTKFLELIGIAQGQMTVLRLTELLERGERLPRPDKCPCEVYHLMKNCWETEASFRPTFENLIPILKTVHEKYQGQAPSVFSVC
row,SMILES,"amount of TYK2 protein, normalized to GADPH, under competition with pomalidomide (FIG. 2B)"
1,"CNC(=O)c1nnc(NC(=O)CCN2CCC(C3CN(c4ccc5c(c4)C(=O)N(C4CCC(=O)NC4=O)C5=O)C3)CC2)cc1Nc1cccc(-c2ncn(C)n2)c1OC (stereo not shown) [PROTAC 1, 6-(3-(4-(1-(2-(2,6-Dioxopiperidin-3-yl)-1,3-dioxoisoindolin-5-yl)azetidin-3-yl)piperidin-1-yl)propanamido)-4-((2-methoxy-3-(1-methyl-1H-1,2,4-triazol-3-yl)phenyl)amino)-N-methylpyridazine-3-carboxamide]",reversal of the PROTAC effect; also recorded: significantly reduces extent of degradation

# Same assay, conditions: 24 hour treatment, compound alone; PROTAC 1 at 100 nM
row,SMILES,"amount of TYK2 protein, normalized to the amount of GADPH protein, detected in cell lysates (FIG. 2B)"
1,"CNC(=O)c1nnc(NC(=O)CCN2CCC(C3CN(c4ccc5c(c4)C(=O)N(C4CCC(=O)NC4=O)C5=O)C3)CC2)cc1Nc1cccc(-c2ncn(C)n2)c1OC (stereo not shown) [PROTAC 1, 6-(3-(4-(1-(2-(2,6-Dioxopiperidin-3-yl)-1,3-dioxoisoindolin-5-yl)azetidin-3-yl)piperidin-1-yl)propanamido)-4-((2-methoxy-3-(1-methyl-1H-1,2,4-triazol-3-yl)phenyl)amino)-N-methylpyridazine-3-carboxamide]",effective at 100 nM in reducing the amount of TYK2 protein; also recorded: shows degradation
2,"Nc1cccc2c1C(=O)N(C1CCC(=O)NC1=O)C2=O (stereo not shown) [pomalidomide, reference compound]",does not significantly reduce the amount of TYK2 protein

# Same assay, conditions: MOLT-4 cells, 24 hours after treatment, TYK2 level related to DMSO-only cells
row,Tyk2 Degradation Score,SMILES
1,+ (25-50% degradation),"CNC(=O)c1nnc(NC(=O)CCN2CCC(C3CN(c4ccc5c(c4)C(=O)N(C4CCC(=O)NC4=O)C5=O)C3)CC2)cc1Nc1cccc(-c2ncn(C)n2)c1OC (stereo not shown) [PROTAC 1, 6-(3-(4-(1-(2-(2,6-Dioxopiperidin-3-yl)-1,3-dioxoisoindolin-5-yl)azetidin-3-yl)piperidin-1-yl)propanamido)-4-((2-methoxy-3-(1-methyl-1H-1,2,4-triazol-3-yl)phenyl)amino)-N-methylpyridazine-3-carboxamide]"
2,— (< 25% degradation),"CNC(=O)c1nnc(NC(=O)CCN2CCN(c3ccc4c(c3)C(=O)N(C3CCC(=O)NC3=O)C4=O)CC2)cc1Nc1cccc(-c2ncn(C)n2)c1OC (stereo not shown) [PROTAC 2, 6-(3-(4-(2-(2,6-Dioxopiperidin-3-yl)-1,3-dioxoisoindolin-5-yl)piperazin-1-yl)propanamido)-4-((2-methoxy-3-(1-methyl-1H-1,2,4-triazol-3-yl)phenyl)amino)-N-methylpyridazine-3-carboxamide]"
3,++ (51-75% degradation),"CNC(=O)c1nnc(NC(=O)CCN2CCC(CC3CN(c4ccc5c(c4)C(=O)N(C4CCC(=O)NC4=O)C5=O)C3)CC2)cc1Nc1cccc(-c2ncn(C)n2)c1OC (stereo not shown) [PROTAC 3, 6-(3-(4-((1-(2-(2,6-Dioxopiperidin-3-yl)-1,3-dioxoisoindolin-5-yl)azetidin-3-yl)methyl)piperidin-1-yl)propanamido)-4-((2-methoxy-3-(1-methyl-1H-1,2,4-triazol-3-yl)phenyl)amino)-N-methylpyridazine-3-carboxamide]"
4,+ (25-50% degradation),"CNC(=O)c1nnc(NC(=O)CCN2CCN(c3cc(N4CCN(c5ccc6c(c5)C(=O)N(C5CCC(=O)NC5=O)C6=O)CC4)ncn3)CC2)cc1Nc1cccc(-c2ncn(C)n2)c1OC (stereo not shown) [PROTAC 4, 6-(3-(4-(6-(4-(2-(2,6-Dioxopiperidin-3-yl)-1,3-dioxoisoindolin-5-yl)piperazin-1-yl)pyrimidin-4-yl)piperazin-1-yl)propanamido)-4-((2-methoxy-3-(1-methyl-1H-1,2,4-triazol-3-yl)phenyl)amino)-N-methylpyridazine-3-carboxamide]"
5,+ (25-50% degradation),"CNC(=O)c1nnc(NC(=O)CCN2CCC(COCC3CCN(c4ccc5c(c4)C(=O)N(C4CCC(=O)NC4=O)C5=O)CC3)CC2)cc1Nc1cccc(-c2ncn(C)n2)c1OC (stereo not shown) [PROTAC 5, 6-(3-(4-(((1-(2-(2,6-Dioxopiperidin-3-yl)-1,3-dioxoisoindolin-5-yl)piperidin-4-yl)methoxy)methyl)piperidin-1-yl)propanamido)-4-((2-methoxy-3-(1-methyl-1H-1,2,4-triazol-3-yl)phenyl)amino)-N-methylpyridazine-3-carboxamide]"
6,++ (51-75% degradation),"CNC(=O)c1nnc(NC(=O)CCNCC2CCN(c3ccc4c(c3)C(=O)N(C3CCC(=O)NC3=O)C4=O)CC2)cc1Nc1cccc(-c2ncn(C)n2)c1OC (stereo not shown) [PROTAC 6, 6-(3-(((1-(2-(2,6-Dioxopiperidin-3-yl)-1,3-dioxoisoindolin-5-yl)piperidin-4-yl)methyl)amino)propanamido)-4-((2-methoxy-3-(1-methyl-1H-1,2,4-triazol-3-yl)phenyl)amino)-N-methylpyridazine-3-carboxamide]"
7,+++ (>75% degradation),"CNC(=O)c1nnc(NC(=O)CCN2CC(CN3CCN(C4CCN(c5ccc6c(c5)C(=O)N(C5CCC(=O)NC5=O)C6=O)CC4)CC3)C2)cc1Nc1cccc(-c2ncn(C)n2)c1OC (stereo not shown) [PROTAC 7, 6-(3-(3-((4-(1-(2-(2,6-Dioxopiperidin-3-yl)-1,3-dioxoisoindolin-5-yl)piperidin-4-yl)piperazin-1-yl)methyl)azetidin-1-yl)propanamido)-4-((2-methoxy-3-(1-methyl-1H-1,2,4-triazol-3-yl)phenyl)amino)-N-methylpyridazine-3-carboxamide]"
8,+++ (>75% degradation),"CNC(=O)c1nnc(NC(=O)CCN2CCC(CCCN3CCN(c4ccc5c(c4)C(=O)N(C4CCC(=O)NC4=O)C5=O)CC3)CC2)cc1Nc1cccc(-c2ncn(C)n2)c1OC (stereo not shown) [PROTAC 8, 6-(3-(4-(3-(4-(2-(2,6-Dioxopiperidin-3-yl)-1,3-dioxoisoindolin-5-yl)piperazin-1-yl)propyl)piperidin-1-yl)propanamido)-4-((2-methoxy-3-(1-methyl-1H-1,2,4-triazol-3-yl)phenyl)amino)-N-methylpyridazine-3-carboxamide]"
9,++ (51-75% degradation),"CNC(=O)c1nnc(NC(=O)CCN2CCC(CCC3CCN(c4ccc(Oc5ccc6c(c5)C(=O)N(C5CCC(=O)NC5=O)C6=O)cc4)CC3)CC2)cc1Nc1cccc(-c2ncn(C)n2)c1OC (stereo not shown) [PROTAC 9, 6-(3-(4-(2-(1-(4-((2-(2,6-Dioxopiperidin-3-yl)-1,3-dioxoisoindolin-5-yl)oxy)phenyl)piperidin-4-yl)ethyl)piperidin-1-yl)propanamido)-4-((2-methoxy-3-(1-methyl-1H-1,2,4-triazol-3-yl)phenyl)amino)-N-methylpyridazine-3-carboxamide]"
10,++ (51-75% degradation),"CNC(=O)c1nnc(NC(=O)CCN2CCC(CNc3ccc4c(c3)C(=O)N(C3CCC(=O)NC3=O)C4=O)CC2)cc1Nc1cccc(-c2ncn(C)n2)c1OC (stereo not shown) [PROTAC 10, 6-(3-(4-(((2-(2,6-Dioxopiperidin-3-yl)-1,3-dioxoisoindolin-5-yl)amino)methyl)piperidin-1-yl)propanamido)-4-((2-methoxy-3-(1-methyl-1H-1,2,4-triazol-3-yl)phenyl)amino)-N-methylpyridazine-3-carboxamide]"
